The values below come from PubChem BioAssay (NCI).

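How tested: cells in 96-well plates exposed to compound for 48 hours at five concentrations. Here, GI50 denotes the concentration required for 50% inhibition of growth. TGI denotes the concentration required for complete inhibition of growth.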

Test systems include KM12 colon; M14 melanoma; CAKI-1 renal; SW-620 colon; A549 NSCLC; TK-10 renal; HT29 colon; HCT-15 colon; MDA-MB-231 breast; SR leukemia.
Holding throughout (assay): inhibition of tumour cell growth, NCI panel, 48 h

Regarding `CC1OC(O)C(O)C(O)C1O` (stereo unspecified), the TGI in the assay on KM12 colon, in the assay on M14 melanoma, with CAKI-1 renal, with SW-620 colon, in the assay on A549 NSCLC and with TK-10 renal was more than 100 µM each time. For the same molecule, the TGI in the assay on HT29 colon, with HCT-15 colon and in the assay with MDA-MB-231 breast was more than 100 µM in each case.
For the molecule `COc1ccc2c3c(c(OCCCN(C)C)nc2c1)-c1ccc(Cl)cc1C3=O`, the GI50 is 4.01 µM with KM12 colon; 11.4 µM in the assay on M14 melanoma; 11.4 µM in the assay on CAKI-1 renal; 1.56 µM with SW-620 colon; 4.39 µM with A549 NSCLC; 5.39 µM with TK-10 renal. Besides, the GI50 in the assay on HT29 colon is 2.01 µM; with HCT-15 colon, 1.79 µM; in the assay with MDA-MB-231 breast, 4.26 µM. Moreover, the TGI turned out to be 18 µM with KM12 colon; 24.2 µM in the assay on M14 melanoma; 23.6 µM in the assay with CAKI-1 renal; 12.9 µM in the assay on SW-620 colon; 23.1 µM in the assay on A549 NSCLC; 15.3 µM with TK-10 renal. Moreover, the TGI with HT29 colon came out at 17.6 µM; in the assay on HCT-15 colon, 10.6 µM; with MDA-MB-231 breast, 23.7 µM.
As to `CC(C)(C)CC(C)(C)c1ccc(OCCOCCSC(=N)N)cc1`, the GI50 in the assay on KM12 colon is 1.78 µM; with M14 melanoma, 1.8 µM; in the assay with CAKI-1 renal, 2.28 µM; in the assay with SW-620 colon it was 1.65 µM; in the assay on A549 NSCLC, 2.65 µM; with TK-10 renal it was 2.47 µM. The results for the GI50 with HT29 colon, with HCT-15 colon and in the assay on MDA-MB-231 breast were 1.78 µM, 1.8 µM and 1.34 µM, respectively. Also, the TGI in the assay on KM12 colon turned out to be 3.33 µM; in the assay on M14 melanoma it was 3.39 µM; with CAKI-1 renal, 5.87 µM; in the assay on SW-620 colon, 3.34 µM; in the assay on A549 NSCLC, 8.77 µM; in the assay with TK-10 renal it was 5.19 µM. The TGI in the assay with HT29 colon amounted to 3.42 µM; in the assay on HCT-15 colon, 3.85 µM; in the assay on MDA-MB-231 breast, 2.94 µM.
With `C[Se]C(=O)CC1=C2C=C(F)C=CC2/C(=C\c2ccc(S(C)=O)cc2)C1C` (stereo unspecified), the GI50 in the assay with KM12 colon was 0.0853 µM; in the assay on M14 melanoma, 0.0387 µM; in the assay with CAKI-1 renal it was 0.0253 µM; in the assay on SW-620 colon, 0.273 µM; with A549 NSCLC, 0.0257 µM; with HT29 colon, less than 0.0318 µM. Besides, the figures for the GI50 with HCT-15 colon, in the assay with SR leukemia and in the assay with MDA-MB-231 breast were 0.0461 µM, 1.17 µM and 0.0427 µM, respectively. Moreover, the TGI is 3.25 µM with KM12 colon; 1.52 µM with M14 melanoma; 0.478 µM with CAKI-1 renal; 3.25 µM with SW-620 colon; 2.66 µM in the assay with A549 NSCLC; more than 100 µM in the assay with HT29 colon. Moreover, the TGI in the assay on HCT-15 colon was 1.21 µM; with SR leukemia, more than 100 µM; in the assay with MDA-MB-231 breast, 0.327 µM.
`N#Cc1nc(-c2ccccc2)oc1S(=O)(=O)N1CCOCC1`: the GI50 in the assay on KM12 colon was 23.6 µM; in the assay with M14 melanoma, 2.26 µM; with CAKI-1 renal, 1.61 µM; in the assay with SW-620 colon it was 2.04 µM; in the assay on A549 NSCLC it was 27.9 µM; in the assay on TK-10 renal, 6.25 µM. The GI50 in the assay with HT29 colon is 4.82 µM; in the assay on HCT-15 colon, 1.45 µM; in the assay on MDA-MB-231 breast, 14.1 µM. The TGI in the assay on KM12 colon is 68 µM; in the assay with M14 melanoma it was 7.42 µM; in the assay with CAKI-1 renal, 3.04 µM; with SW-620 colon it was 4.84 µM; in the assay on A549 NSCLC it was more than 100 µM; in the assay with TK-10 renal it was 19.2 µM. Also, the TGI in the assay with HT29 colon was found to be 25.4 µM; in the assay with HCT-15 colon, 3.39 µM; with MDA-MB-231 breast it was 29.9 µM.
As for `O=C(/C=C/c1cccc(Cl)c1)c1ccc(Cl)cc1Cl`, the GI50 was 9.76 µM in the assay with KM12 colon; 14 µM in the assay on M14 melanoma; 8.94 µM in the assay with CAKI-1 renal; 2.36 µM in the assay with SW-620 colon; 10.4 µM in the assay with A549 NSCLC; 8.8 µM in the assay with TK-10 renal. Moreover, the GI50 in the assay with HCT-15 colon is 12.2 µM; in the assay with SR leukemia, 0.005 µM; in the assay with MDA-MB-231 breast, 13 µM. Also, the TGI in the assay with KM12 colon was 21.6 µM; in the assay with M14 melanoma it was 31 µM; with CAKI-1 renal it was 18.2 µM; in the assay on SW-620 colon, 38.7 µM; with A549 NSCLC it was 29.7 µM; in the assay with TK-10 renal it was 18.8 µM. Also, the TGI was more than 50 µM in the assay with HCT-15 colon, 4.31 µM with SR leukemia and 34.7 µM with MDA-MB-231 breast.
`O=Cc1coc2ccccc2c1=O`: the TGI with KM12 colon was 69.9 µM; in the assay with M14 melanoma it was 38.5 µM; in the assay with CAKI-1 renal, 52.9 µM; with SW-620 colon, 41.5 µM; in the assay with A549 NSCLC, 84.9 µM; in the assay on TK-10 renal it was 60.5 µM. Further, the TGI came out at 46.1 µM in the assay on HT29 colon, 37.4 µM with HCT-15 colon and 48.4 µM in the assay on MDA-MB-231 breast.
Take `CCNCCNc1cc(-c2ccc(F)cc2)c(C#N)c2nc3ccccc3n12`: the GI50 was 8.37 µM with KM12 colon; 1.97 µM in the assay on M14 melanoma; 4 µM with CAKI-1 renal; 2.95 µM in the assay with SW-620 colon; 4.78 µM in the assay on A549 NSCLC; 2.33 µM in the assay on TK-10 renal. Besides, the results for the GI50 with HT29 colon, in the assay on HCT-15 colon and with MDA-MB-231 breast were 3.06 µM, 2.31 µM and 2.73 µM, respectively. For the same molecule, the TGI in the assay on KM12 colon stood at 21.1 µM; in the assay with M14 melanoma it was 3.63 µM; in the assay with CAKI-1 renal, 15.4 µM; in the assay with SW-620 colon, 10.1 µM; in the assay on A549 NSCLC, 15.4 µM; in the assay with TK-10 renal, 8.45 µM. Also, the TGI in the assay on HT29 colon turned out to be 11 µM; in the assay on HCT-15 colon it was 5.86 µM; in the assay with MDA-MB-231 breast it was 7.69 µM.
Regarding `CC#CC(=O)N1CCC[C@H]1c1nc(-c2ccc(C(=O)Nc3ccccn3)cc2)c2c(N)nccn12`, the GI50 with KM12 colon is more than 72.2 µM; with M14 melanoma it was 56.5 µM; in the assay with SW-620 colon, more than 100 µM; in the assay on A549 NSCLC, more than 79.1 µM; in the assay on TK-10 renal it was 21.1 µM; in the assay with HT29 colon, 55.1 µM. Also, the GI50 in the assay on HCT-15 colon was more than 72.3 µM; in the assay with SR leukemia, 43.8 µM; in the assay on MDA-MB-231 breast, 28.1 µM. Moreover, the TGI in the assay with KM12 colon, with M14 melanoma, in the assay with SW-620 colon, in the assay on A549 NSCLC, in the assay with TK-10 renal and with HT29 colon was more than 100 µM in each case. Also, the TGI in the assay on HCT-15 colon, in the assay on SR leukemia and in the assay on MDA-MB-231 breast was more than 100 µM in each case.
On to `C=C(C)[C@H]1CC/C(C)=C/CCC(C)C(=O)CC/C(CO)=C\[C@@H]1O` (stereo partly specified), for which the GI50 with KM12 colon was more than 100 µM; with M14 melanoma, 87.7 µM; in the assay on CAKI-1 renal, 65.9 µM; in the assay with SW-620 colon it was more than 100 µM; with A549 NSCLC it was more than 100 µM; in the assay with TK-10 renal it was 70.8 µM. Besides, the GI50 is 5.47 µM in the assay on HCT-15 colon, more than 100 µM in the assay on SR leukemia and more than 100 µM in the assay on MDA-MB-231 breast. In addition, the TGI with KM12 colon, in the assay on M14 melanoma, in the assay on CAKI-1 renal, in the assay on SW-620 colon, with A549 NSCLC and in the assay with TK-10 renal was more than 100 µM in each case. The TGI in the assay on HCT-15 colon, with SR leukemia and in the assay on MDA-MB-231 breast was more than 100 µM throughout.
As to `COc1ccc2c(c1)OC13Oc4cc(OC)ccc4C=C1CCCC3=C2`, the GI50 with KM12 colon was 18.7 µM; in the assay with M14 melanoma, more than 100 µM; in the assay on SW-620 colon, more than 100 µM; in the assay on A549 NSCLC it was more than 100 µM; in the assay on TK-10 renal it was more than 100 µM; in the assay on HT29 colon, more than 100 µM. For the same molecule, the GI50 is more than 100 µM in the assay on HCT-15 colon, 4.89 µM in the assay on SR leukemia and more than 100 µM with MDA-MB-231 breast. The TGI with KM12 colon, in the assay on M14 melanoma, in the assay on SW-620 colon, in the assay with A549 NSCLC, with TK-10 renal and with HT29 colon was more than 100 µM in each case. In addition, the TGI in the assay with HCT-15 colon, with SR leukemia and in the assay on MDA-MB-231 breast was more than 100 µM in each case.
`CC1(C)OCN(c2ccc(Cl)cc2)Cn2c1nc1ccccc12`: the TGI with KM12 colon was more than 54.1 µM; with M14 melanoma, more than 100 µM; in the assay on SW-620 colon it was more than 100 µM; with A549 NSCLC it was more than 100 µM; in the assay with TK-10 renal it was more than 100 µM; with HT29 colon, more than 100 µM. Further, the TGI is more than 100 µM with HCT-15 colon, 98.6 µM in the assay with SR leukemia and more than 100 µM in the assay with MDA-MB-231 breast.
As to `CCC1(OC(C)=O)C(=O)OCc2c1cc1n(c2=O)Cc2cc3ccccc3nc2-1` (stereo unspecified), the TGI with KM12 colon was more than 100 µM; in the assay on M14 melanoma, more than 33 µM; with CAKI-1 renal, 36 µM; in the assay on SW-620 colon, more than 100 µM; in the assay with A549 NSCLC it was more than 100 µM; in the assay on TK-10 renal, more than 100 µM. Besides, the TGI in the assay with HT29 colon was more than 100 µM; with HCT-15 colon, more than 100 µM; in the assay on SR leukemia, 11.9 µM.
Take `Fc1ccc(-c2ncn(C3CCNCC3)c2-c2ccnc(Oc3cccc(F)c3)n2)cc1`: the GI50 is 13.6 µM in the assay with KM12 colon; 5.26 µM in the assay on M14 melanoma; 17.9 µM with CAKI-1 renal; 5.54 µM with SW-620 colon; 24.7 µM in the assay with A549 NSCLC; 17.1 µM in the assay with TK-10 renal. In addition, the GI50 in the assay with HT29 colon is 4.5 µM; with HCT-15 colon it was more than 18 µM; with MDA-MB-231 breast, 9.99 µM. Further, the TGI in the assay with KM12 colon is more than 25 µM; in the assay with M14 melanoma it was 10.5 µM; in the assay on CAKI-1 renal, more than 25 µM; in the assay with SW-620 colon it was more than 14.7 µM; in the assay on A549 NSCLC, more than 25 µM; with TK-10 renal, more than 25 µM. Moreover, the TGI with HT29 colon is 8.6 µM; in the assay on HCT-15 colon it was more than 25 µM; with MDA-MB-231 breast, more than 25 µM.
